In patent publication US20120058997A1, “IMIDAZO[1,2-B]PYRIDAZINE AND PYRAZOLO[1,5-A]PYRIMIDINE DERIVATIVES AND THEIR USE AS PROTEIN KINASE INHIBITORS” (SuperGen, Inc., priority 2006, published 2012):
Where two headings read alike, the source gives them in different places.

How the values were obtained:
K562 Cells = assay: Cell growth inhibition, Cell-Titer-Glo, 96 hours; format: cell-based; settings: Homo sapiens;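 also: luminescent ATP signal as an index of viable cell number, drug-treated versus cells given an equal volume of DMSO vehicle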
PC-3 Cells = assay: Cell growth inhibition, Cell-Titer-Glo, 96 hours; format: cell-based; settings: Homo sapiens;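 also: luciferase luminescence reflecting cellular ATP, used as a proxy for cell number, with compound-treated cells compared against DMSO vehicle control wells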
Pim-1 kinase = Pim-1 kinase (Homo sapiens, UniProt P11309); assay: Promega Kinase-Glo Pim-1 kinase inhibition assay; format: biochemical;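 also: in vitro Pim-1 reaction run 2 h at 30 °C, then leftover ATP measured by luciferase luminescence, where signal falls as kinase activity rises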
Sequence of Pim-1 kinase (P11309 whole entry): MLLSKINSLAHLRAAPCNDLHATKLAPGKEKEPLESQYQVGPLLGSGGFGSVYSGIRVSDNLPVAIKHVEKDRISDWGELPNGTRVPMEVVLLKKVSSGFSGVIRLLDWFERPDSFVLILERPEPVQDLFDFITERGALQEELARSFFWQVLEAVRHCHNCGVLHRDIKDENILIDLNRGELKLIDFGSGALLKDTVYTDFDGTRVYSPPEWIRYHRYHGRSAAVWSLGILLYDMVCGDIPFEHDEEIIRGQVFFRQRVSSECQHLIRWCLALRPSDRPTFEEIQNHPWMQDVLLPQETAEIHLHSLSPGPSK

[1] = K562, Table IX (results), read-out: IC50 (K562)
[2] = Table X, Kinase-Glo, read-out: IC50 on Pim1

Structure (SMILES) | IC50 (Pim-1 kinase; [2]) [µM] | further results
CCN1CCC(CNc2nn3c(-c4cccc(OC(F)(F)F)c4)cnc3cc2C)CC1 [Compound 7-38, N-((1-ethylpiperidin-4-yl)methyl)-7-methyl-3-((trifluoromethoxy)phenyl)imidazo [1,2-b]pyridazin-6-amine] | – | IC50 (K562 Cells; [1]): 1410 nM; IC50 (PC-3 Cells; Table IX (results), read-out: IC50 (PC-3)): 5680 nM
Cc1ccc(S(=O)(=O)Nc2ccc(Nc3ccn4ncc(-c5cccc(N)c5)c4n3)cc2)cc1 [Compound 3-9] | – | IC50 (K562 Cells; K562, read-out: IC50 K562 Cells (inhibit cell growth to 50% of untreated), Table VI): 20600 nM; IC50 (PC-3 Cells; read-out: IC50 PC-3 Cells (inhibit cell growth to 50% of untreated), Table VI): 12000 nM
CN1CCC(CNc2ccc3ncc(-c4cc(OC(F)(F)F)ccc4O)n3n2)CC1 [Compound 7-43, 3-(2-hydroxy-5-(trifluoromethoxy)phenyl)-N-((1-methylpiperidin-4-yl)methyl)-imidazo[1,2-b]pyridazin-6-amine] | – | IC50 (Pim-1 kinase; Table VIII (results), values in uM, read-out: IC50(Kinase)): 1.1 µM; IC50 (K562 Cells; [1]): 4900 nM
FC(F)(F)Oc1cccc(-c2cnc3ccc(NCC4CCSCC4)nn23)c1 [Compound 8-18, N-((tetrahydro-2H-thiopyran-4-yl)methyl)-3-(3-(trifluoromethoxy)phenyl)imidazo[1,2-b]pyridazin-6-amine] | 1 to 5 | –
C[C@]1(O)CC[C@H](Nc2ccn3ncc(-c4cccc(Cl)c4)c3n2)CC1 [Compound 8-62] | 0.1 to 1 | –
CC[C@@H](N)COc1ccc2ncc(-c3cccc(OC(F)(F)F)c3)n2n1 [Compound 7-18, (R)-1-(3-(3-(trifluoromethoxy)phenyl)imidazo[1,2-b]pyridazin-6-yloxy)butan-2-amine] | – | IC50 (Pim-1 kinase; Table VIII (results), values in nM, read-out: IC50(Kinase)): 0.481 µM; IC50 (K562 Cells; [1]): 5820 nM
O=S1(=O)CCC(Nc2ccc3ncc(-c4cccc(OC(F)(F)F)c4)n3n2)CC1 [Compound 8-14, 4-((3-(3-(Trifluoromethoxy)phenyl)imidazo[1,2-b]pyridazin-6-yl)amino)tetrahydro-2H-thiopyran 1,1-dioxide] | 1 to 5 | –
O=S1(=O)CCN(c2ccc3ncc(-c4cccc(OC(F)(F)F)c4)n3n2)CC1 [Compound 8-15, 4-(3-(3-(Trifluoromethoxy)phenyl)imidazo[1,2-b]pyridazin-6-yl)thiomorpholine 1,1-dioxide] | 1 to 5 | –
C[C@]1(O)CC[C@H](Nc2ccn3ncc(-c4cccc(OC(F)(F)F)c4)c3n2)CC1 [Compound 8-48, 1-Methyl-4-((3-(3-(trifluoromethoxy)phenyl)pyrazolo[1,5-a]pyrimidin-5-yl)amino)-trans-cyclohexanol] | 0.1 to 1 | –
CO[C@H]1CC[C@H](Nc2ccn3ncc(-c4cccc(C(F)(F)F)c4)c3n2)CC1 [Compound 8-57, 4-(trans-Methoxycyclohexyl)-3-(3-(trifluoromethyl)phenyl)pyrazolo[1,5-a]pyrimidin-5-amine] | 0.01 to 0.1 | –
CO[C@H]1CC[C@H](Nc2ccn3ncc(-c4cccc(Cl)c4)c3n2)CC1 [Compound 8-64] | 0.01 to 0.1 | –

Continued, in another order:

IC50 (Pim-1 kinase; [2]) [µM] | Structure (SMILES) | further results
< 0.01 | N[C@H]1CC[C@H](Nc2ccc3ncc(-c4cccc(OC(F)(F)F)c4)n3n2)CC1 [Compound 8-8, (3-(3-(Trifluoromethoxy)phenyl)imidazo[1,2-b]pyridazin-6-yl)cyclohexane-trans-1,4-diamine] | –
< 0.01 | CC(C)(O)[C@H]1CC[C@H](Nc2ccc3ncc(-c4cccc(C(F)(F)F)c4)n3n2)CC1 [Compound 8-31] | –
0.01 to 0.1 | CN(C)CC(=O)N1CCC(CNc2ccc3ncc(-c4cccc(OC(F)(F)F)c4)n3n2)CC1 [Compound 8-45, 2-(dimethylamino)-1-(4-(((3-(3-(trifluoromethoxy)phenyl)imidazo[1,2-b]pyridazin-6-yl)amino)methyl)piperidin-1-yl)ethanone] | –
0.01 to 0.1 | CC(C)(O)[C@H]1CC[C@H](Nc2ccn3ncc(-c4cccc(C(F)(F)F)c4)c3n2)CC1 [Compound 8-56] | –
< 0.01 | CC(C)(O)[C@H]1CC[C@H](Nc2ccc3ncc(-c4cccc(OC(F)(F)F)c4)n3n2)CC1 [Compound 8-10] | –
0.01 to 0.1 | CC(C)(O)CNc1ccc2ncc(-c3cccc(OC(F)(F)F)c3)n2n1 [Compound 8-6, 2-Methyl-1-((3-(3-(trifluoromethoxy)phenyl)imidazo[1,2-b]pyridazin-6-yl)amino)propan-2-ol] | –
